Laboratory results: patent US11324728B2, “Dosing regimens for the treatment of fungal infections” (Seren Pharmaceuticals Inc., priority 2017, dated 2022)
Several values for one entry are separate records, joined by “and”; a condition that tells them apart may be missing. Identical values can stand only once.

Assays:
Trichophyton species = assay: Overall clinical evaluation by identified species; assay type: in vivo; conditions: 200 mg, Week 48
Method: (§1) A Phase II clinical pharmacology study was conducted in subjects with onychomycosis of the toenail. The study investigated the pharmacokinetics, efficacy and safety of three different dosing regimens of fosravuconazole. […] The three treatment groups were as follows: • a.

Trichophyton rubrum [1] = assay: Overall clinical evaluation by identified species; assay type: in vivo; conditions: Week 48
Method: as §1

[2] = tested on: Trichophyton mentagrophytes; assay: Overall clinical evaluation by identified species; assay type: in vivo; conditions: Week 48
Method: as §1

[3] = Safety: adverse events and laboratory tests; assay type: in vivo, human
Method: as §1
The safety endpoints were: (1) adverse events (AEs); (2) adverse reactions; and (3) laboratory tests.

Trichophyton rubrum [4] = assay: Identification of dermatophytes by PCR method: disappearance rate; assay type: in vivo; conditions: Week 48
Source text: (§2) The efficacy endpoints were: (1) overall clinical efficacy; (2) changes over time in efficacy; (3) confirmation of elements of dermatophytes by direct microscopy; and (4) results of identification of dermatophytes by the polymerase chain reaction (PCR) method.

fungal elements = assay: Mycological cure: search for fungal elements by direct microscopy; assay type: in vivo, human; conditions: PPS
Method: as §1, §2
At screening, fungal elements were found by direct microscopy in all treatment groups.

C[C@@H](c1nc(-c2ccc(C#N)cc2)cs1)[C@@](Cn1cncn1)(OCOP(=O)(O)O)c1ccc(F)cc1F [fosravuconazole, 4-[2-[(1R,2R)-2-(2,4-difluorophenyl)-1-methyl-2-[(phosphonooxy)methoxy]-3-(1H-1,2,4-triazol-1-yl)propyl]-4-thiazolyl]benzo-nitrile]
Cure rate and 95% CI (Trichophyton species): 0.0 % | Cured (Trichophyton species): 0 | Failed (Trichophyton species): 0 | Improved (Trichophyton species): 0 | Markedly improved (Trichophyton species): 1 | Slightly improved (Trichophyton species): 0 | Cure rate and 95% CI (Trichophyton rubrum [1]; 100 mg): 47.6 % | Cured (Trichophyton rubrum [1]; 100 mg): 10 | Failed (Trichophyton rubrum [1]; 100 mg): 0 | Improved (Trichophyton rubrum [1]; 100 mg): 1 | Markedly improved (Trichophyton rubrum [1]; 100 mg): 10 | Slightly improved (Trichophyton rubrum [1]; 100 mg): 0 | Cure rate and 95% CI (Trichophyton rubrum [1]; 200 mg): 31.6 % | Cured (Trichophyton rubrum [1]; 200 mg): 6 | Failed (Trichophyton rubrum [1]; 200 mg): 0 | Improved (Trichophyton rubrum [1]; 200 mg): 2 | Markedly improved (Trichophyton rubrum [1]; 200 mg): 11 | Slightly improved (Trichophyton rubrum [1]; 200 mg): 0 | Cure rate and 95% CI (Trichophyton rubrum [1]; 400 mg): 44.0 % | Cured (Trichophyton rubrum [1]; 400 mg): 11 | Failed (Trichophyton rubrum [1]; 400 mg): 0 | Improved (Trichophyton rubrum [1]; 400 mg): 4 | Markedly improved (Trichophyton rubrum [1]; 400 mg): 10 | Slightly improved (Trichophyton rubrum [1]; 400 mg): 0 | Cure rate and 95% CI ([2]; 100 mg): 0.0 % | Cured ([2]; 100 mg): 0 | Failed ([2]; 100 mg): 0 | Improved ([2]; 100 mg): 0 | Markedly improved ([2]; 100 mg): 4 | Slightly improved ([2]; 100 mg): 0 | Cure rate and 95% CI ([2]; 200 mg): 0.0 % | Cured ([2]; 200 mg): 0 | Failed ([2]; 200 mg): 0 | Improved ([2]; 200 mg): 2 | Markedly improved ([2]; 200 mg): 0 | Slightly improved ([2]; 200 mg): 0 | Cure rate and 95% CI ([2]; 400 mg): 0.0 % | Cured ([2]; 400 mg): 0 | Failed ([2]; 400 mg): 0 | Improved ([2]; 400 mg): 0 | Markedly improved ([2]; 400 mg): 2 | Slightly improved ([2]; 400 mg): 0 | AEs resulting in discontinuation of the study treatment ([3]; 100 mg (once daily dose) group): 1 subject | AST or ALT elevated to Grade 2 after the start of study treatment ([3]; 100 mg (once daily dose) group): 2 subjects | Moderate AEs ([3]; 100 mg (once daily dose) group): 3 subjects | incidence of AEs ([3]; 100 mg (once daily dose) group): 89.7% | new AE derived from fungal infection ([3]; 100 mg (once daily dose) group): no new AE derived from fungal infection | AST or ALT elevated to Grade 2 after the start of study treatment ([3]; 200 mg (pulse treatment) group): 1 subject | Moderate AEs ([3]; 200 mg (pulse treatment) group): 12 subjects | incidence of AEs ([3]; 200 mg (pulse treatment) group): 64.5% | AEs resulting in discontinuation of the study treatment ([3]; 400 mg (pulse treatment) group): 4 subjects | AST or ALT elevated to Grade 2 after the start of study treatment ([3]; 400 mg (pulse treatment) group): 1 subject | Moderate AEs ([3]; 400 mg (pulse treatment) group): 12 subjects | incidence of AEs ([3]; 400 mg (pulse treatment) group): 85.3% | tinea pedis ([3]; 400 mg (pulse treatment) group): 2 subjects | tolerability ([3]; all dosing groups): well-tolerated | death or other serious AEs ([3]; any of the treatment groups): No death or other serious AEs occurred | AST or ALT elevated to Grade 2 after the start of study treatment ([3]; in total, all groups): 4 subjects | Disappearance rate of Trichophyton rubrum (Trichophyton rubrum [4]; 100 mg (once daily dose) group): 57.1% | Disappearance rate of Trichophyton rubrum (Trichophyton rubrum [4]; 200 mg (pulse treatment) group): 36.8% | Disappearance rate of Trichophyton rubrum (Trichophyton rubrum [4]; 400 mg (pulse treatment) group): 52.1% and 52.0% | Absence of fungal elements by direct microscopy (%) (fungal elements; 100 mg group, At screening): (0.0) % | Absence of fungal elements by direct microscopy, subjects (fungal elements; 100 mg group, At screening): 0 | Presence of fungal elements by direct microscopy (%) (fungal elements; 100 mg group, At screening): (100.0) % | Presence of fungal elements by direct microscopy, subjects (fungal elements; 100 mg group, At screening): 28 | Absence of fungal elements by direct microscopy (%) (fungal elements; 100 mg group, Week 12): (33.3) % | Absence of fungal elements by direct microscopy, subjects (fungal elements; 100 mg group, Week 12): 9 | Presence of fungal elements by direct microscopy (%) (fungal elements; 100 mg group, Week 12): (16.7) % | Presence of fungal elements by direct microscopy, subjects (fungal elements; 100 mg group, Week 12): 18 | Absence of fungal elements by direct microscopy (%) (fungal elements; 100 mg group, Week 24): (48.0) % | Absence of fungal elements by direct microscopy, subjects (fungal elements; 100 mg group, Week 24): 12 | Presence of fungal elements by direct microscopy (%) (fungal elements; 100 mg group, Week 24): (52.0) % | Presence of fungal elements by direct microscopy, subjects (fungal elements; 100 mg group, Week 24): 13 | Absence of fungal elements by direct microscopy, subjects (fungal elements; 100 mg group, Week 48): 18 | Presence of fungal elements by direct microscopy (%) (fungal elements; 100 mg group, Week 48): (28.0) % | Presence of fungal elements by direct microscopy, subjects (fungal elements; 100 mg group, Week 48): 7 | Absence of fungal elements by direct microscopy (%) (fungal elements; 200 mg group, At screening): (0.0) % | Absence of fungal elements by direct microscopy, subjects (fungal elements; 200 mg group, At screening): 0 | Presence of fungal elements by direct microscopy (%) (fungal elements; 200 mg group, At screening): (100.0) % | Presence of fungal elements by direct microscopy, subjects (fungal elements; 200 mg group, At screening): 27 | Absence of fungal elements by direct microscopy (%) (fungal elements; 200 mg group, Week 12): (50.0) % | Absence of fungal elements by direct microscopy, subjects (fungal elements; 200 mg group, Week 12): 13 | Presence of fungal elements by direct microscopy (%) (fungal elements; 200 mg group, Week 12): (50.0) % | Presence of fungal elements by direct microscopy, subjects (fungal elements; 200 mg group, Week 12): 13 | Absence of fungal elements by direct microscopy (%) (fungal elements; 200 mg group, Week 24): (48.0) % | Absence of fungal elements by direct microscopy, subjects (fungal elements; 200 mg group, Week 24): 12 | Presence of fungal elements by direct microscopy (%) (fungal elements; 200 mg group, Week 24): (52.0) % | Presence of fungal elements by direct microscopy, subjects (fungal elements; 200 mg group, Week 24): 13 | Absence of fungal elements by direct microscopy, subjects (fungal elements; 200 mg group, Week 48): 8 | Presence of fungal elements by direct microscopy (%) (fungal elements; 200 mg group, Week 48): (63.6) % | Presence of fungal elements by direct microscopy, subjects (fungal elements; 200 mg group, Week 48): 14 | Absence of fungal elements by direct microscopy (%) (fungal elements; 400 mg group, At screening): (0.0) % | Absence of fungal elements by direct microscopy, subjects (fungal elements; 400 mg group, At screening): 0 | Presence of fungal elements by direct microscopy (%) (fungal elements; 400 mg group, At screening): (100.0) % | Presence of fungal elements by direct microscopy, subjects (fungal elements; 400 mg group, At screening): 33 | Absence of fungal elements by direct microscopy (%) (fungal elements; 400 mg group, Week 12): (19.4) % | Absence of fungal elements by direct microscopy, subjects (fungal elements; 400 mg group, Week 12): 6 | Presence of fungal elements by direct microscopy (%) (fungal elements; 400 mg group, Week 12): (80.6) % | Presence of fungal elements by direct microscopy, subjects (fungal elements; 400 mg group, Week 12): 25 | Absence of fungal elements by direct microscopy (%) (fungal elements; 400 mg group, Week 24): (45.2) % | Absence of fungal elements by direct microscopy, subjects (fungal elements; 400 mg group, Week 24): 14 | Presence of fungal elements by direct microscopy (%) (fungal elements; 400 mg group, Week 24): (54.8) % | Presence of fungal elements by direct microscopy, subjects (fungal elements; 400 mg group, Week 24): 17 | Absence of fungal elements by direct microscopy, subjects (fungal elements; 400 mg group, Week 48): 17 | Presence of fungal elements by direct microscopy (%) (fungal elements; 400 mg group, Week 48): (37.0) % | Presence of fungal elements by direct microscopy, subjects (fungal elements; 400 mg group, Week 48): 10
